Paper PMC6112376, “Comprehensive Analyses and Prioritization of Tox21 10K Chemicals Affecting Mitochondrial Function by in-Depth Mechanistic Studies” (Environmental Health Perspectives, 2018)
Counter-ions that a name gives are not always drawn. Like-named read-outs stand apart in the source and are kept apart here.

Experiments:
[1] = tested on: HepG2 cells; conditions: cited from earlier work
[2] = tested on: HepG2 cells; test: cells; conditions: Homo sapiens; for IC50: HepG2, read-out: MMP assays IC50 (µM) HepG2; for Emax: HepG2, read-out: MMP assays efficacy (%) HepG2
[3] = tested on: rat primary hepatocytes; test: MMP assay in rat primary hepatocytes; conditions: for IC50: Rattus norvegicus, Hepatocyte, read-out: MMP assays IC50 (µM) Rat Hepatocytes; for MMP assays efficacy (%) Rat Hepatocytes / MMP assays IC50 (µM) Rat Hepatocytes: mean ± SD of three experiments
[4] = read-out: MMP assays IC50 (µM) qHTS-HepG2
[5] = read-out: MMP assays IC50 (µM), qHTS-HepG2

Structure (SMILES) | MMP assays efficacy (%) qHTS-HepG2 [1] | IC50 [1, 4] | IC50 [2] | Emax [2] | IC50 [3] | MMP assays efficacy (%) Rat Hepatocytes [3] | MMP assays IC50 (µM) Rat Hepatocytes [3] | IC50 [1, 5]
Cc1cc(O)c2c(O)c3c(O)cccc3cc2c1 [Chrysarobin] | -105±7% | 22.8 ± 3.93 µM | 30.8 µM | 90% | 19.3 ± 8.27 µM | -52±8% |  | 
Cc1ccc2c(Cl)cc(Cl)c(O)c2n1 [5,7-Dichloro-8-hydroxy-2-methylquinoline] | -120±20% | 11 ± 2 µM | 1.38 µM | 60% |  | inactive | inactive | 
Nc1cc(Cl)c(O)c(Cl)c1 [4-Amino-2,6-dichlorophenol] | -97±9% | 17.2 ± 13.4 µM | 15.8 µM | 120% | 29.6 ± 27.8 µM | -57±8% |  | 
Oc1ccc(OCc2ccccc2)cc1 [4-(Benzyloxyl)phenol] | -87±9% | 18.5 ± 1.51 µM | 7.4 µM | 93% | 9.04 ± 8.1 µM | -46±35% |  | 
CC(C)(c1ccc(O)cc1)c1ccc(O)cc1 [Bisphenol A] | -122±14% | 14 ± 6.29 µM | 15.8 µM | 111% | 37.6 ± 3.06 µM | -59±20% |  | 
Nc1cccc(N)n1 [2,6-Diaminopyridine] | -68±18% | 31.3 ± 10.3 µM | 35.5 µM | 84% | 20.9 ± 15.7 µM | -75±28% |  | 
CCc1oc2ccccc2c1C(=O)c1cc(I)c(O)c(I)c1 [Benziodarone] | -106±2% | 2.98 ± 0.63 µM | 4.35 µM | 97% | 1.76 ± 0.68 µM | -95±10% |  | 
OCc1c2ccccc2cc2ccccc12 [Compound 9-Anthracenemethanol] | -104±23% | 34.5 ± 11.5 µM | 19.9 µM | 88% | 21.7 ± 15.7 µM | -68±25% |  | 
CCc1c(C(=O)NN2CCCCC2)nn(-c2ccc(Cl)cc2Cl)c1-c1ccc(Br)cc1 [Surinabant] | -97±6% |  | 19.9 µM | 94% | 34.3 ± 22.5 µM | -81±29% |  | 33.1 ± 16.6 µM
O=C(c1ccccc1)c1ccc(O)cc1 [Compound 4-Hydroxybenzophenone] | -87±12% | 41.3 ± 18.1 µM | 28.2 µM | 116% | 17.8 ± 28 µM | -82±39% |  | 
COC(=O)C1=C(C)NC(C)=C(C(=O)OC(C)(C)CN(C)CCC(c2ccccc2)c2ccccc2)C1c1cccc([N+](=O)[O-])c1 (stereo not shown) [Lercanidipine hydrochloride] | -83±7% |  |  | 117% | 27.5 µM | -77±16% |  | 6.53 ± 0.53 µM
O=C(Nc1ncc([N+](=O)[O-])s1)c1cccs1 [Tenonitrozole] | -95±3% |  | 0.56 µM | 99% | 0.68 ± 0.45 µM |  |  | 0.73 ± 0.12 µM
CN1C(=O)/C(=N\NC(N)=S)c2ccccc21 [Methisazone] | -96±7% |  | 12.6 µM | 90% | 21.5 ± 9.04 µM | -94±16% |  | 5.82 ± 1.38 µM
O=c1cc(-c2ccccc2)oc2cc(O)cc(O)c12 [Chrysin] | -103±9% | 5.05 ± 2.76 µM | 7.08 µM | 105% | 30.6 ± 28.4 µM | -78±36% |  | 
CCC(C)(C)c1ccc(CC(C)CN2C[C@@H](C)O[C@@H](C)C2)cc1 (stereo partly shown) [Amorolfine] | -63±11% | 21.6 ± 3.47 µM | 17.3 µM | 82% |  | inactive | inactive | 
ON=C1C=CC(=NO)C=C1 [p-Benzoquinone dioxime] | -71±6% |  | 25.1 µM | 58% |  | inactive | inactive | 43.3 ± 14.9 µM
Nc1ccc2c(O)cc(S(=O)(=O)O)cc2c1 | -55±5% | 27.3 ± 3.73 µM | 39.8 µM | 40% |  | inactive | inactive | 
CCCCCCCCCCCCOC(=O)c1cc(O)c(O)c(O)c1 [Dodecyl gallate] | -99±8% | 4.75 ± 1.81 µM | 7.94 µM | 100% | 48.7 ± 8.3 µM | -65±17% |  | 
CCCCC(CC)CN1C(=O)C2C3C=CC(C3)C2C1=O (stereo not shown) [MGK-264] | -65±7% |  | 28.2 µM | 84% | 17.8 ± 25.1 µM | -55±25% |  | 15.4 ± 10.5 µM
CCC(=O)OCC(=O)[C@@]1(OC(=O)CC)[C@@H](C)C[C@H]2[C@@H]3CCC4=CC(=O)C=C[C@]4(C)[C@@]3(F)[C@@H](O)C[C@@]21C [Betamethasone dipropionate] | -118±9% | 25.6 ± 1.67 µM | 19.4 µM | 63% |  | inactive | inactive | 
Nc1cc([N+](=O)[O-])ccc1C(=O)O [4-Nitroanthranilic acid] | -62±14% | 38.6 ± 17.2 µM | 17.8 µM | 51% |  | inactive | inactive | 
CCC(=O)O[C@]1(C(=O)CCl)[C@@H](C)C[C@H]2[C@@H]3C[C@H](F)C4=CC(=O)C=C[C@]4(C)[C@@]3(F)[C@@H](O)C[C@@]21C [Halobetasol propionate] | -106±7% |  | 13.8 µM | 127% | 25.2 ± 7.02 µM | -82±13% |  | 15.2 ± 5.52 µM
Oc1ccc(Cl)c2cccnc12 [Cloxyquin] | -58±10% | 16.8 ± 5.94 µM | 15.5 µM | 79% |  | inactive | inactive | 
CN1C(C(=O)Nc2ccccn2)=C(O)c2sc(Cl)cc2S1(=O)=O [Lornoxicam] | -92±10% |  | 6.15 µM | 73% | 3.3 ± 2.52 µM | -57±10% |  | 9.44 ± 1.09 µM
C[C@@H]1C[C@H]2[C@@H]3CCC4=CC(=O)C=C[C@]4(C)[C@@]3(Cl)[C@@H](O)C[C@]2(C)[C@@]1(OC(=O)c1ccco1)C(=O)CCl [Mometasone furoate] | -101±23% |  | 8.3 µM | 71% | 14 ± 1.14 µM | -21±0% |  | 11.8 ± 0.8 µM
Cc1ccc(C(C)(C)C)c(O)c1 [Compound 2-tert-Butyl-5-methylphenol] | -96±7% | 23.5 ± 2.85 µM | 5.01 µM | 95% | 40.1 ± 6.5 µM | -66±11% |  | 
Nc1ccc([N+](=O)[O-])cc1O [Compound 2-Amino-5-nitrophenol] | -70±18% | 27.4 ± 14.1 µM | 35.5 µM | 76% | 52.1 ± 17.7 µM | -63±37% |  | 
